Assay results as given in patent US12077503B2, “Substituted cyclic amides and their use as herbicides” (FMC CORPORATION, priority 2015, dated 2024).

Columns and labels:
Type in all cases: in vivo
[1] = tested on: ducksalad (Heteranthera limosa); experiment: Test B flooded paddy test; settings: Flood, 250 g ai/ha; 0 to 100 scale where 0 is no effect and 100 is complete control; 13 to 15 d
In short: (§1)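 2-leaf plants; pots flooded 3 cm over soil; cpd added to paddy water; depth held; greenhouse 13–15 d; visual rating vs controls, 0 = no effect, 100 = complete control.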

[2] = tested on: sedge, umbrella (small-flower umbrella sedge, Cyperus difformis); experiment: Test B flooded paddy test; settings: Flood, 250 g ai/ha; 0 to 100 scale where 0 is no effect and 100 is complete control; 13 to 15 d
In short: as §1

[3] = tested on: barnyardgrass (Echinochloa crus-galli); experiment: Test B flooded paddy test; settings: Flood, 250 g ai/ha; 0 to 100 scale where 0 is no effect and 100 is complete control; 13 to 15 d
In short: as §1

rice (Oryra sativa) = experiment: Test B flooded paddy test; settings: Flood, 250 g ai/ha; 0 to 100 scale where 0 is no effect and 100 is complete control; 13 to 15 d
In short: as §1

Kochia (Kochia scoparia) [4] = experiment: Test A preemergence; settings: Preemergence; for Plant response rating, Kochia: 125 g ai/ha, visual injury after approximately 10 d, 0 to 100 scale where 0 is no effect and 100 is complete control; for Kochia plant response rating (0 to 100 scale, 0 is no effect, 100 is complete control): 500 g ai/ha, visual injury approx. 10 d
In short: (§2)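 Preemergence directed soil spray on seeded pots, or postemergence application to plants 2–10 cm, one- to two-leaf. Solvent mixture non-phytotoxic, with surfactant. Scored ~10 d later, visually, 0–100 vs untreated.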

[5] = tested on: ryegrass, Italian (Italian ryegrass, Lolium multiflorum); experiment: Test A preemergence; settings: Preemergence; for Plant response rating, Ryegrass, Italian: 125 g ai/ha, visual injury after approximately 10 d, 0 to 100 scale where 0 is no effect and 100 is complete control; for Ryegrass, Italian plant response rating (0 to 100 scale, 0 is no effect, 100 is complete control): 500 g ai/ha, visual injury approx. 10 d
In short: as §2

[6] = tested on: giant foxtail (Setaria faberii); experiment: Test A preemergence; settings: Preemergence; for Plant response rating, Foxtail, Giant: 125 g ai/ha, visual injury after approximately 10 d, 0 to 100 scale where 0 is no effect and 100 is complete control; for Foxtail, Giant plant response rating (0 to 100 scale, 0 is no effect, 100 is complete control): 500 g ai/ha, visual injury approx. 10 d
In short: as §2

[7] = tested on: ragweed (common ragweed, Ambrosia elatior); experiment: Test A preemergence; settings: Preemergence; for Plant response rating, Ragweed: 125 g ai/ha, visual injury after approximately 10 d, 0 to 100 scale where 0 is no effect and 100 is complete control; for Ragweed plant response rating (0 to 100 scale, 0 is no effect, 100 is complete control): 500 g ai/ha, visual injury approx. 10 d
In short: as §2

[8] = tested on: barnyardgrass (Echinochloa crus-galli); experiment: Test A preemergence; settings: Preemergence; for Plant response rating, Barnyardgrass: 125 g ai/ha, visual injury after approximately 10 d, 0 to 100 scale where 0 is no effect and 100 is complete control; for Barnyardgrass plant response rating (0 to 100 scale, 0 is no effect, 100 is complete control): 500 g ai/ha, visual injury approx. 10 d
In short: as §2

[9] = tested on: pigweed (Amaranthus retroflexus); experiment: Test A preemergence; settings: Preemergence; for Plant response rating, Pigweed: 125 g ai/ha, visual injury after approximately 10 d, 0 to 100 scale where 0 is no effect and 100 is complete control; for Pigweed plant response rating (0 to 100 scale, 0 is no effect, 100 is complete control): 500 g ai/ha, visual injury approx. 10 d
Kochia (Kochia scoparia) [10] = experiment: Test A postemergence
In short: as §2

[11] = tested on: ryegrass, Italian (Italian ryegrass, Lolium multiflorum); experiment: Test A postemergence
In short: as §2

[12] = tested on: giant foxtail (Setaria faberii); experiment: Test A postemergence
In short: as §2

[13] = tested on: ragweed (common ragweed, Ambrosia elatior); experiment: Test A postemergence
In short: as §2

[14] = tested on: barnyardgrass (Echinochloa crus-galli); experiment: Test A postemergence
In short: as §2

corn (Zea mays) = experiment: Test A postemergence
In short: as §2

[15] = tested on: pigweed (Amaranthus retroflexus); experiment: Test A postemergence
In short: as §2

[16] = tested on: blackgrass (Alopecurus myosuroides); experiment: Test A postemergence
In short: as §2

[17] = tested on: Galium (catchweed bedstraw, Galium aparine); experiment: Test A postemergence
In short: as §2

[18] = tested on: wheat (Triticum aestivum); experiment: Test A postemergence
In short: as §2

[19] = 125 g ai/ha, postemergence, visual rating after approx. 10 d, 0 to 100 scale (0 no effect, 100 complete control)
[20] = Postemergence, 500 g ai/ha, 0 to 100 scale where 0 is no effect and 100 is complete control
[21] = 125 g ai/ha, postemergence, visual injury rating on 0 to 100 scale (0 no effect, 100 complete control), approx. 10 d

| SMILES | Plant response rating, Ducksalad [1] | Plant response rating, Sedge, Umbrella [2] | Plant response rating, Barnyardgrass [3] | Plant response rating, Rice (rice (Oryra sativa)) | Plant response rating, Kochia (Kochia (Kochia scoparia) [4]) | Kochia plant response rating (0 to 100 scale, 0 is no effect, 100 is complete control) (Kochia (Kochia scoparia) [4]) | Plant response rating, Ryegrass, Italian [5] | Ryegrass, Italian plant response rating (0 to 100 scale, 0 is no effect, 100 is complete control) [5] | Plant response rating, Foxtail, Giant [6] | Foxtail, Giant plant response rating (0 to 100 scale, 0 is no effect, 100 is complete control) [6] | Plant response rating, Ragweed [7] | Plant response rating, Barnyardgrass [8] | Barnyardgrass plant response rating (0 to 100 scale, 0 is no effect, 100 is complete control) [8] | Plant response rating, Pigweed [9] | Pigweed plant response rating (0 to 100 scale, 0 is no effect, 100 is complete control) [9] | Plant response rating, Kochia (Kochia (Kochia scoparia) [10]; [19]) | Plant response rating, Kochia (Kochia (Kochia scoparia) [10]; [20]) | Plant response rating, Ryegrass, Italian [11, 19] | Plant response rating, Ryegrass, Italian [11, 20] | Plant response rating, Foxtail, Giant [12, 19] | other results |
| --- | --- | --- | --- | --- | --- | --- | --- | --- | --- | --- | --- | --- | --- | --- | --- | --- | --- | --- | --- | --- | --- |
| CN1CC(c2cccc(OC(F)(F)C(F)F)c2)C(C(=O)Nc2ccccc2F)C1=O (centres unmarked) [Compound 539] | 95 | 0 | 65 | 0 | 60 | 70 | 30 | 50 | 90 | 90 | 0 | 90 | 90 | 40 | 80 | 40 | 70 | 0 | 70 | 90 | Ragweed plant response rating (0 to 100 scale, 0 is no effect, 100 is complete control) [7]: 70; Plant response rating, Foxtail, Giant [12, 20]: 90; Plant response rating, Ragweed [13, 19]: 0; Plant response rating, Ragweed [13, 20]: 50; Barnyardgrass plant response rating [14, 21]: 90; Plant response rating, Barnyardgrass [14, 20]: 90; Plant response rating, Corn (corn (Zea mays); [19]): 70; Plant response rating, Corn (corn (Zea mays); [20]): 90; Plant response rating, Pigweed [15, 19]: 20; Plant response rating, Pigweed [15, 20]: 50; Blackgrass plant response rating [16, 21]: 50; Plant response rating, Blackgrass [16, 20]: 80; Plant response rating, Galium [17, 19]: 70; Plant response rating, Galium [17, 20]: 70; Plant response rating, Wheat [18, 19]: 50; Plant response rating, Wheat [18, 20]: 70 |
| CC(C)Oc1cccc(C2CNC(=O)C2C(=O)Nc2cccc(F)c2F)c1 (centres unmarked) [Compound 553] | 100 | 0 | 65 | 10 | 60 | 80 | 70 | 70 | 90 | 90 | 40 | 90 | 90 | 30 | 40 | 30 | 50 | 60 | 70 | 70 | Plant response rating, Foxtail, Giant [12, 20]: 90; Plant response rating, Ragweed [13, 19]: 30; Plant response rating, Ragweed [13, 20]: 40; Plant response rating, Barnyardgrass [14, 19]: 90; Plant response rating, Barnyardgrass [14, 20]: 90; Plant response rating, Corn (corn (Zea mays); [19]): 80; Plant response rating, Corn (corn (Zea mays); [20]): 90; Plant response rating, Pigweed [15, 19]: 20; Plant response rating, Pigweed [15, 20]: 30; Plant response rating, Blackgrass [16, 19]: 50; Plant response rating, Blackgrass [16, 20]: 60; Plant response rating, Galium [17, 19]: 60; Plant response rating, Galium [17, 20]: 60; Plant response rating, Wheat [18, 19]: 40; Plant response rating, Wheat [18, 20]: 60 |
| CC(C)Oc1cccc(C2CNC(=O)C2C(=O)Nc2ccc(F)c(F)c2F)c1 (centres unmarked) [Compound 554] | 100 | 0 | 55 | 25 | 70 | 90 | 20 | 40 | 90 | 90 | 20 | 90 | 90 | 0 | 30 | 20 | 50 | 40 | 90 | 70 | Ragweed plant response rating (0 to 100 scale, 0 is no effect, 100 is complete control) [7]: 70; Plant response rating, Foxtail, Giant [12, 20]: 80; Plant response rating, Ragweed [13, 19]: 0; Plant response rating, Ragweed [13, 20]: 30; Plant response rating, Barnyardgrass [14, 19]: 80; Plant response rating, Barnyardgrass [14, 20]: 90; Plant response rating, Corn (corn (Zea mays); [19]): 40; Plant response rating, Corn (corn (Zea mays); [20]): 70; Plant response rating, Pigweed [15, 19]: 0; Plant response rating, Pigweed [15, 20]: 0; Plant response rating, Blackgrass [16, 19]: 60; Plant response rating, Blackgrass [16, 20]: 70; Plant response rating, Galium [17, 19]: 60; Plant response rating, Galium [17, 20]: 60; Plant response rating, Wheat [18, 19]: 20; Plant response rating, Wheat [18, 20]: 50 |
| O=C1NCC(c2cc(C(F)(F)F)cc(C(F)(F)F)c2)C1C(=O)Nc1ccc(F)cc1F (centres unmarked) [Compound 589] | 70 | 0 | 60 | 20 | 0 | 0 | 0 | 40 | 80 | 90 | 0 | 80 | 90 | 0 | 0 | 0 | 0 | 20 | 40 | 80 | Ragweed plant response rating (0 to 100 scale, 0 is no effect, 100 is complete control) [7]: 0; Plant response rating, Foxtail, Giant [12, 20]: 80; Plant response rating, Ragweed [13, 19]: 0; Plant response rating, Ragweed [13, 20]: 0; Plant response rating, Barnyardgrass [14, 19]: 60; Plant response rating, Barnyardgrass [14, 20]: 80; Plant response rating, Corn (corn (Zea mays); [19]): 10; Plant response rating, Corn (corn (Zea mays); [20]): 60; Plant response rating, Pigweed [15, 19]: 0; Plant response rating, Pigweed [15, 20]: 0; Plant response rating, Blackgrass [16, 19]: 20; Plant response rating, Blackgrass [16, 20]: 40; Plant response rating, Galium [17, 19]: 0; Plant response rating, Galium [17, 20]: 0; Plant response rating, Wheat [18, 19]: 0; Plant response rating, Wheat [18, 20]: 50 |
